In patent US20200338045A1, “ISOINDOLINE COMPOSITIONS AND METHODS FOR TREATING NEURODEGENERATIVE DISEASE” (priority 2017, published 2020):

Legend:
[1] = system: plasma proteins; experiment: LC/MSMS protein expression in plasma (COG0102); assay type: in vivo, human
Description: Plasma and CSF protein expression were measured by LC/MSMS in samples drawn prior to dosing (Day 0) and at end of dosing (Day 28) and were compared within each patient and between dosing groups.
(§1) This trial (ClinicalTrials.gov NCT02907567) was a randomized, double-blind, placebo-controlled clinical trial in mild to moderate Alzheimer's patients (MMSE 18-26) (See FIG. 1 for clinical trial design). The trial was conducted at six sites in Australia. Patients were randomized into placebo (n=5) or CT1812-treated groups: 90 mg (n=4), 280 mg (n=5) or 560 mg (n=5) and treated once daily for 28 days. Clinical chemistry was done at Sydpath (Sydney, AU). Pharmacokinetics were done at CPR Pharma Services (Adelaide, AU). Cerebrospinal fluid samples were taken at screening and day 21-28 of treatment and aliquoted. Plasma samples were taken at screening or Day 1 (one sample) and day 14-28, then spun down to separate plasma and aliquoted. One set of CSF samples was analyzed for Alzheimer's disease biomarkers; protein measurements (Aβ42, A1340, total tau, tau phosphorylated at threonine 181 (phosphorylated tau), NFL and neurogranin) were performed using commercially available ELISA assays from Fujirebio according to the manufacturer's instructions (INNOTEST β-AMYLOID(1-42), INNOTEST β-AMYLOID(1-40), INNOTEST hTau Ag, INNOTEST PHOSPHO-TAU(181P), Uman Diagnostics NFL assay). Neurogranin was measured with a sandwich ELISA method using antibodies Ng2 and Ng22 developed at the University of Gotteborg (Kvartsberg et al. 2015). Identical aliquots of CSF, and plasma were analyzed for protein expression changes via LC/MSMS at Caprion (see below).
Matched screening and day 28 plasma and CSF samples were analyzed by LC/MSMS at Caprion Biosciences Inc. Plasma was depleted of high and medium abundance proteins using a commercial immunoaffinity column, IgY14-Supermix (Sigma). CSF was depleted of only 14 high abundance proteins using MARS-14 (Agilent). All samples were digested with trypsin and plasma samples were fractionated by strong cation exchange chromatography (3 fractions). Both CSF and plasma samples were analyzed using a NanoAcquity UPLC coupled to a Q Exactive MS. […] The 12 most intense peaks per survey scan with charge states 2-8 fragmented and scanned with a mass range from 200 to 2000 m/z at a resolution of 17,500. Raw spectrometer data files for each LC-MS run were aligned independently using Elucidator software (Rosetta Biosoftware). The MS/MS spectra were matched to corresponding peptide sequences found in the Uniprot Human protein database (January 2017) using Mascot software, allowing for up to 2 missed cleavages, a peptide tolerance of 20 ppm, and an MS/MS tolerance of 0.05 Da. Outlier detection was performed by determining the average log-intensity of all isotope groups (IG) over injection order for all samples. Samples with an average value greater than 2 standard deviations from the mean were flagged for investigation. Following data transformation and normalization, expression analysis of the identified isotope groups was performed and the statistical significance of each comparison was assessed with a parametric, linear mixed model (LMM) and a non-parametric Wilcoxon ranked test (ranked p-values). Expression analysis was also performed at the peptide and protein levels, which used the same methodology as above, but applied to peptide/protein intensities, derived by rolling-up the corresponding isotope group intensities. Isotope groups not detected in at least half of the samples in either of the two groups being compared were not used for the roll-up.

[2] = COG0102 pharmacokinetics: plasma and CSF concentrations, estimated brain receptor occupancy; assay type: in vivo, human; details: 90-560 mg
Description: as §1, with “Plasma samples were taken at screening or Day 1 (one sample) and day 14-28, then spun down to separate plasma and aliquoted.” left out

[3] = plasma, treated group vs baseline

CC(C)(C)Oc1cc(CCC(C)(C)N2Cc3ccc(S(C)(=O)=O)cc3C2)ccc1O [CT1812]
Sema3F, % change treated vs placebo ([1]; CSF & Plasma): 47% | Sema3F, With CT1812 ([1]; CSF & Plasma, direction of change): significantly increased and ↑* | Sema3F, % change baseline treated ([1]; CSF & Plasma, treated group vs baseline): 10% | ACOX1, % change treated vs placebo ([1]; plasma): 42% | ANXA1, % change treated vs placebo ([1]; plasma): −61% | ANXA2, % change treated vs placebo ([1]; plasma): −54% | AZGP1, % change treated vs placebo ([1]; plasma): 28% | B4GALT1, % change treated vs placebo ([1]; plasma): 36% | C4BPA, % change treated vs placebo ([1]; plasma): 44% | CFH, % change treated vs placebo ([1]; plasma): 20% | Cathepsin S, % change treated vs placebo ([1]; plasma): 58% | Clusterin, % change treated vs placebo ([1]; plasma): 17% | FUT11, % change treated vs placebo ([1]; plasma): 39% | GALT6, % change treated vs placebo ([1]; plasma): 33% | GPR116, % change treated vs placebo ([1]; plasma): 27% | GXYLT1, % change treated vs placebo ([1]; plasma): 82% | HINT1, % change treated vs placebo ([1]; plasma): −131% | HMGB1, % change treated vs placebo ([1]; plasma): −315% | HRG, % change treated vs placebo ([1]; plasma): 61% | Hex A, % change treated vs placebo ([1]; plasma): 34% | Hex B, % change treated vs placebo ([1]; plasma): 36% | LCAT, % change treated vs placebo ([1]; plasma): 17% | NRP2, % change treated vs placebo ([1]; plasma): 46% | Neprilysin, % change treated vs placebo ([1]; plasma): 4717% | PCK2, % change treated vs placebo ([1]; plasma): 74% | POMGNT1, % change treated vs placebo ([1]; plasma): 41% | PRDX6, % change treated vs placebo ([1]; plasma): −130% | SERPING1, % change treated vs placebo ([1]; plasma): 24% | ST3GAL1, % change treated vs placebo ([1]; plasma): 31% | SUMO3, % change treated vs placebo ([1]; plasma): −77% | TRIM35, % change treated vs placebo ([1]; plasma): 99% | TXN, % change treated vs placebo ([1]; plasma): −98% | WDR81, % change treated vs placebo ([1]; plasma): 142% | ACOX1, With CT1812 ([1]; plasma, direction of change): ↑* | ANXA1, With CT1812 ([1]; plasma, direction of change): significantly reduced and ↓* | ANXA2, With CT1812 ([1]; plasma, direction of change): ↓* | AZGP1, With CT1812 ([1]; plasma, direction of change): ↑* | B4GALT1, With CT1812 ([1]; plasma, direction of change): ↑* | C4BPA, With CT1812 ([1]; plasma, direction of change): significantly increased and ↑* | CFH, With CT1812 ([1]; plasma, direction of change): ↑* | Cathepsin S, With CT1812 ([1]; plasma, direction of change): significantly increase and ↑* | Clusterin, With CT1812 ([1]; plasma, direction of change): increased and ↑ | FUT11, With CT1812 ([1]; plasma, direction of change): ↑* | GALT6, With CT1812 ([1]; plasma, direction of change): ↑* | GPR116, With CT1812 ([1]; plasma, direction of change): ↑ | GXYLT1, With CT1812 ([1]; plasma, direction of change): significantly increased and ↑* | HINT1, With CT1812 ([1]; plasma, direction of change): significantly reduced and ↓* | HMGB1, With CT1812 ([1]; plasma, direction of change): significantly reduced and ↓* | HRG, With CT1812 ([1]; plasma, direction of change): significantly increased and ↑* | Hex A, With CT1812 ([1]; plasma, direction of change): significantly increased and ↑* | Hex B, With CT1812 ([1]; plasma, direction of change): significantly increased and ↑* | LCAT, With CT1812 ([1]; plasma, direction of change): ↑ | NRP2, With CT1812 ([1]; plasma, direction of change): ↑* | Neprilysin, With CT1812 ([1]; plasma, direction of change): ↑* | PCK2, With CT1812 ([1]; plasma, direction of change): ↑ | POMGNT1, With CT1812 ([1]; plasma, direction of change): ↑* | PRDX6, With CT1812 ([1]; plasma, direction of change): ↓* | SERPING1, With CT1812 ([1]; plasma, direction of change): significantly increased and ↑* | ST3GAL1, With CT1812 ([1]; plasma, direction of change): ↑* | SUMO3, With CT1812 ([1]; plasma, direction of change): ↓* | TRIM35, With CT1812 ([1]; plasma, direction of change): ↑* | TXN, With CT1812 ([1]; plasma, direction of change): significantly reduced and ↓* | WDR81, With CT1812 ([1]; plasma, direction of change): significantly increased and ↑* | GALT6, With CT1812 ([1]; plasma, direction of change, listed as CT-1812): significantly increased | ACOX1, % change baseline treated [1, 3]: 10% | ANXA1, % change baseline treated [1, 3]: −18% | ANXA2, % change baseline treated [1, 3]: −20% | AZGP1, % change baseline treated [1, 3]: 5% | B4GALT1, % change baseline treated [1, 3]: 16% | C4BPA, % change baseline treated [1, 3]: 21% | CFH, % change baseline treated [1, 3]: 6% | Cathepsin S, % change baseline treated [1, 3]: 27% | Clusterin, % change baseline treated [1, 3]: 4% | FUT11, % change baseline treated [1, 3]: 18% | GALT6, % change baseline treated [1, 3]: 15% | GPR116, % change baseline treated [1, 3]: 9% | GXYLT1, % change baseline treated [1, 3]: 38% | HINT1, % change baseline treated [1, 3]: −43% | HMGB1, % change baseline treated [1, 3]: −67% | HRG, % change baseline treated [1, 3]: 10% | Hex A, % change baseline treated [1, 3]: 13% | Hex B, % change baseline treated [1, 3]: 19% | LCAT, % change baseline treated [1, 3]: 6% | NRP2, % change baseline treated [1, 3]: 10% | Neprilysin, % change baseline treated [1, 3]: 48% | PCK2, % change baseline treated [1, 3]: 76% | POMGNT1, % change baseline treated [1, 3]: 14% | PRDX6, % change baseline treated [1, 3]: −37% | SERPING1, % change baseline treated [1, 3]: 4% | ST3GAL1, % change baseline treated [1, 3]: 5% | SUMO3, % change baseline treated [1, 3]: −35% | TRIM35, % change baseline treated [1, 3]: 3% | TXN, % change baseline treated [1, 3]: −33% | WDR81, % change baseline treated [1, 3]: 33% | GALNT1, GALNT2, GALNT4, and GALNT5 expression ([1]; with treatment): increase with treatment | plasma CT1812 concentration vs dose ([2]; day 28): increased approximately dose proportionally | CSF CT1812 concentration vs dose ([2]; days 22-30): dose dependent increase
